From patent US6476043B1, “Use of camptothecin derivatives, with reduced gastrointestinal toxicity” (Aventis Pharma S.A., priority 1998, dated 2002)

Columns and labels:
[1] = tested on: CD1 male mice; assay: Study I: protective effect of oral sodium chloride solution on the intestinal toxicity of intravenous CPT-11; format: in vivo
Experimental: The body weight is recorded on days 1, 6, 11 and 13. […] The complete gastrointestinal tract is removed from all of the mice. The gastrointestinal tract of the mice which survived to the end of the observation period is subjected to examination under a microscope.

[2] = tested on: mammary adenocarcinoma MA16/C; assay: Study IV: effect of oral sodium chloride solution on the antitumour activity of intravenous CPT-11
Text: A Log tumour cell kill value of 0.7 corresponds to minimum activity, while a value greater than 2.8 corresponds to a high level of activity.

[3] = tested on: female Beagle dogs
Experimental: The animals are kept with no administration for 2 days after the final administration of sodium chloride at 9 g/l (up to day 9).
The body weight is recorded during the pretest period and on days 5 and 9. The animals are sacrificed and autopsied on day 9. Representative tissue samples taken from the gastrointestinal tract are removed from all the animals and subjected to examination under a microscope.

[4] = mice, CPT-11 40 mg/kg i.v.; CPT-11 group versus CPT-11/NaCl group, days 1 and 5
Experimental: The body weight is measured on days 1, 3, 6 and 8. The plasma samples for the toxicokinetic analysis are taken on days 1 and 5. […] The relative and absolute weights of the thymus, of the spleen and of the testicles are measured, and the complete gastrointestinal tract, the sternal bone marrow, the thymus, the spleen, the testicles and the epididymes are removed from all the mice and subjected to examination under a microscope.

CCc1c2c(nc3ccc(OC(=O)N4CCC(N5CCCCC5)CC4)cc13)-c1cc3c(c(=O)n1C2)COC(=O)[C@]3(O)CC [CPT-11, irinotecan]
loss of body weight ([1]; CPT-11 40 mg/kg i.v. days 6 to 10, CPT-11 group compared with CPT-11/NaCl group): greater | severity of microscopic intestinal lesions (loss of crypts, shortening of villi) ([1]; CPT-11 40 mg/kg i.v. days 6 to 10, autopsy day 13, small intestine): moderate to pronounced | mortality linked to the administration of CPT-11 ([1]; CPT-11 40 mg/kg i.v. days 6 to 10, observed on days 6 and 7, dead/total mice): 7/15 | total cumulative dose at the maximum nontoxic dose ([2]; C3H/HeN female mice carrying MA16/C, i.v. for 5 consecutive days): 118 mg/kg | maximum loss of body weight ([2]; at the maximum nontoxic dose, day 11 (CPT-11 group), day 12 (CPT-11/NaCl group)): 10% | Log cell kill value ([2]; mammary adenocarcinoma MA16/C s.c. in C3H/HeN female mice, at the maximum nontoxic dose): 1.7 | severity of gastrointestinal lesions (degeneration of the mucosa) ([3]; CPT-11 20 mg/kg single i.v. dose on day 6, autopsy day 9): moderate to pronounced | redness on the mucosa of the large intestine (frequency) ([3]; CPT-11 20 mg/kg single i.v. dose, CPT-11 group compared with CPT-11/NaCl group): more common | areas under the curve (AUC) [4]: identical | maximum plasma concentrations (Cmax) [4]: identical

CCc1c2c(nc3ccc(O)cc13)-c1cc3c(c(=O)n1C2)COC(=O)[C@]3(O)CC [SN-38]
areas under the curve (AUC) [4]: identical | maximum plasma concentrations (Cmax) [4]: identical
